From patent publication US20250268826A1, “IONIZABLE LIPIDOID COMPOSITIONS AND THERAPEUTIC USES THEREOF” (Flagship Pioneering Innovations VII, LLC, priority 2023, published 2025)
Several values for one entry are separate records, joined by “and”; a condition that tells them apart may be missing. Identical values can stand only once.

How the values were obtained:
Format in all cases: physicochemical
[1] = LNP Zeta potential measured using a Zetasizer (Malvern)
[2] = LNP size and polydispersity index (PDI) by dynamic light scattering (DLS)
[3] = Encapsulation efficiency (EE %) by fluorescence based Ribogreen assay
[4] = Table 1, LNP lipid:DSPC:Cholesterol:DMG-PEG2k 50:10:38.5:1.5 mol %, hEPO mRNA, N:P 6
[5] = Table 2, LNP 20:10:68.5:1.5 mol %, EGFP mRNA, N:P 2.4
[6] = Table 2, LNP 20:40:38.5:1.5 mol %, EGFP mRNA, N:P 2.4
[7] = Table 2, LNP 30:10:58.5:1.5 mol %, EGFP mRNA, N:P 3.6
[8] = Table 2, LNP 30:30:38.5:1.5 mol %, EGFP mRNA, N:P 3.6
[9] = Table 2, LNP 40:10:48.5:1.5 mol %, EGFP mRNA, N:P 4.8
[10] = Table 2, LNP 40:20:38.5:1.5 mol %, EGFP mRNA, N:P 4.8
[11] = Table 2, LNP 50:10:38.5:1.5 mol %, EGFP mRNA, N:P 6
[12] = Table 3, LNP 50:10:38.5:1.5 mol %, hEPO mRNA, N:P 6
[13] = Table 8, LNP 50:10:38.5:1.5 mol %, hEPO mRNA, N:P 6
[14] = Table 8, LNP Lipid:DSPC:Cholesterol:DMG-PEG2k 50:10:38.5:1.5 mol %, hEPO mRNA, N:P 6
[15] = Table 9, LNP 50:10:38.5:1.5 mol %, hEPO mRNA, N:P 6
[16] = Table 9, LNP Lipid:DSPC:Cholesterol:DMG-PEG2k 50:10:38.5:1.5 mol %, hEPO mRNA, N:P 6
[17] = Table 6, LNP 50:10:38.5:1.5 mol %, hEPO mRNA, N:P 6
[18] = Table 6, LNP 60:0:38.5:1.5 mol %, hEPO mRNA, N:P 6
[19] = Table 7, LNP 30:10:58.5:1.5 mol %, helper lipid DOPC, hEPO mRNA, N:P 6
[20] = Table 7, LNP 30:10:58.5:1.5 mol %, helper lipid DOPE, hEPO mRNA, N:P 6
[21] = Table 7, LNP 30:10:58.5:1.5 mol %, helper lipid DSPC, hEPO mRNA, N:P 6
[22] = Table 7, LNP 50:10:38.5:1.5 mol %, helper lipid DOPC, hEPO mRNA, N:P 6
[23] = Table 7, LNP 50:10:38.5:1.5 mol %, helper lipid DOPE, hEPO mRNA, N:P 6
[24] = Table 7, LNP 50:10:38.5:1.5 mol %, helper lipid DSPC, hEPO mRNA, N:P 6
[25] = Table 5, LNP 50:10:38.5:1.5 mol %, hEPO mRNA, N:P 6
[26] = Table 5, LNP Lipid:DSPC:Cholesterol:DMG-PEG2k 50:10:38.5:1.5 mol %, hEPO mRNA, N:P 6

In the case of `CCCCCCCCC(CCCCCC)C(=O)OCCN(CCOC(=O)C(CCCCCC)CCCCCCCC)C(=O)C(C)N` (stereo not drawn) [Compound 111], the Zeta potential [1, 4] was −3.357 mV, the Zeta potential [1, 5] was −6.2 mV and the Zeta potential [1, 6] was −8.876 mV. For the same compound, the Zeta potential [1, 7] was −4.4 mV, the Zeta potential [1, 8] was −9.169 mV and the Zeta potential [1, 9] was −6.9 mV. It also gave a Zeta potential [1, 10] of −8.503 mV, a PDI [2, 4] of 0.223 and a Size [2, 4] of 93.4 nm. For the same compound, the PDI [2, 5] was 0.129, the PDI [2, 6] was 0.095 and the PDI [2, 7] was 0.082. The PDI [2, 8] was 0.117, the PDI [2, 9] was 0.038 and the PDI [2, 10] was 0.136. For the same compound, the PDI [2, 11] was 0.235 and 0.253, the Size ([2]; Table 2, LNP lipid:DSPC:Cholesterol:DMG-PEG2k 20:10:68.5:1.5 mol %, EGFP mRNA, N:P 2.4) was 57.5 nm and the Size ([2]; Table 2, LNP lipid:DSPC:Cholesterol:DMG-PEG2k 20:40:38.5:1.5 mol %, EGFP mRNA, N:P 2.4) was 69.2 nm. It also gave a Size ([2]; Table 2, LNP lipid:DSPC:Cholesterol:DMG-PEG2k 30:10:58.5:1.5 mol %, EGFP mRNA, N:P 3.6) of 46.5 nm, a Size ([2]; Table 2, LNP lipid:DSPC:Cholesterol:DMG-PEG2k 30:30:38.5:1.5 mol %, EGFP mRNA, N:P 3.6) of 57 nm and a Size ([2]; Table 2, LNP lipid:DSPC:Cholesterol:DMG-PEG2k 40:10:48.5:1.5 mol %, EGFP mRNA, N:P 4.8) of 44.1 nm. For the same compound, the Size ([2]; Table 2, LNP lipid:DSPC:Cholesterol:DMG-PEG2k 40:20:38.5:1.5 mol %, EGFP mRNA, N:P 4.8) was 48.2 nm, the Size ([2]; Table 2, LNP lipid:DSPC:Cholesterol:DMG-PEG2k 50:10:38.5:1.5 mol %, EGFP mRNA, N:P 6) was 110.9 nm and 106 nm and the PDI [2, 12] was 0.27. For the same compound, the Size ([2]; Table 3, LNP lipid:DSPC:Cholesterol:DMG-PEG2k 50:10:38.5:1.5 mol %, hEPO mRNA, N:P 6) was 100.9 nm, the “Encapsulation Efficiency %” value [3, 4] was 95.9% and the “Encapsulation Efficiency %” value [3, 5] was 99.7%. For the same compound, the “Encapsulation Efficiency %” value [3, 6] was 99.3%, the “Encapsulation Efficiency %” value [3, 7] was 99.8% and the “Encapsulation Efficiency %” value [3, 8] was 99.2%. The “Encapsulation Efficiency %” value [3, 9] was 99.7%, the “Encapsulation Efficiency %” value [3, 10] was 99.6% and the “Encapsulation Efficiency %” value [3, 11] was 99.4% and 99.8%. The “Encapsulation Efficiency %” value [3, 12] was 98.1%.

For `CCCCCCCCC(CCCCCC)C(=O)OCCN(CCOC(=O)C(CCCCCC)CCCCCCCC)C(=O)CCCN(C)C` (stereo not drawn) [Compound 931], the Zeta potential [1, 13] was −8.457 mV, the PDI [2, 13] was 0.117 and the Size [2, 14] was 125.8 nm. For the same compound, the “Encapsulation Efficiency %” value [3, 13] was 99.9%.

With `CCCCCCCCC(CCCCCC)C(=O)OCCN(CCOC(=O)C(CCCCCC)CCCCCCCC)C(=O)CN(CC)CCC.Cl` (single isomer, unassigned) [Compound 960a] the Zeta potential [1, 15] was −28.49 mV, the PDI [2, 15] was 0.125 and the Size [2, 16] was 77.4 nm. For the same compound, the “Encapsulation Efficiency %” value [3, 15] was 99.7%.

For `CCCCCCCCC(CCCCCC)C(=O)OCCN(CCOC(=O)C(CCCCCC)CCCCCCCC)C(=O)CNCC.Cl` (stereo not drawn) [Compound 965], the Zeta potential [1, 15] was −14.27 mV, the PDI [2, 15] was 0.216 and the Size [2, 16] was 76.3 nm. For the same compound, the “Encapsulation Efficiency %” value [3, 15] was 98.6%.

Compound `CCCCCCCCC(CCCCCC)C(=O)OCCN(CCOC(=O)C(CCCCCC)CCCCCCCC)C(=O)CCNCC.Cl` (stereo not drawn) [Compound 905] has a Zeta potential [1, 13] of −2.9 mV, a PDI [2, 13] of 0.204 and a Size [2, 14] of 70.4 nm. For the same compound, the “Encapsulation Efficiency %” value [3, 13] was 100%.

`CCCCCCCCC(CCCCCC)C(=O)OCCN(CCOC(=O)C(CCCCCC)CCCCCCCC)C(=O)CCN(C)C` (stereo not drawn) [Compound 808] gave a Zeta potential [1, 17] of −0.3 mV, a Zeta potential [1, 18] of −0.4 mV and a Zeta potential [1, 19] of −9.115 mV. For the same compound, the Zeta potential [1, 20] was −10.16 mV, the Zeta potential [1, 21] was −7.184 mV and the Zeta potential [1, 22] was −8.233 mV. It also gave a Zeta potential [1, 23] of −7.52 mV, a Zeta potential [1, 24] of −7.7 mV and a PDI [2, 17] of 0.114. It also gave a PDI [2, 18] of 0.012, a Size [2, 18] of 131.4 nm and a Size ([2]; Table 6, LNP lipid:DSPC:Cholesterol:DMG-PEG2k 50:10:38.5:1.5 mol %, hEPO mRNA, N:P 6) of 96.3 nm. For the same compound, the PDI [2, 19] was 0.113, the Size [2, 19] was 120.1 nm and the PDI [2, 20] was 0.105. For the same compound, the Size [2, 20] was 79.1 nm, the PDI [2, 21] was 0.033 and the Size [2, 21] was 93.8 nm. For the same compound, the PDI [2, 22] was 0.131, the Size [2, 22] was 99.1 nm and the PDI [2, 23] was 0.214. It also gave a Size [2, 23] of 134.5 nm, a PDI [2, 24] of 0.13 and a Size ([2]; Table 7, LNP ionizable lipid:Helper Lipid:Cholesterol:DMG-PEG2k 50:10:38.5:1.5 mol %, helper lipid DSPC, hEPO mRNA, N:P 6) of 114.4 nm. The “Encapsulation Efficiency %” value [3, 17] was 97%, the “Encapsulation Efficiency %” value [3, 18] was 99.2% and the “Encapsulation Efficiency %” value [3, 19] was 99.5%. For the same compound, the “Encapsulation Efficiency %” value [3, 20] was 99.7%, the “Encapsulation Efficiency %” value [3, 21] was 99.6% and the “Encapsulation Efficiency %” value [3, 22] was 98.8%. The “Encapsulation Efficiency %” value [3, 23] was 99.5% and the “Encapsulation Efficiency %” value [3, 24] was 98.8%.

In the case of `CCCCCCCCCC(CCCCCCCCC)C(=O)OCCN(CCOC(=O)C(CCCCCCCCC)CCCCCCCCC)C(=O)C(C)N` (stereo not drawn) [Compound 614], the Zeta potential [1, 25] was −8.485 mV, the PDI [2, 25] was 0.443 and the Size [2, 26] was 79.1 nm. For the same compound, the “Encapsulation Efficiency %” value [3, 25] was 99.7%.

`CCCCCCCCC(CC)C(=O)OCCN(CCOC(=O)C(CC)CCCCCCCC)C(=O)CN` (stereo not drawn) [Compound 603] showed a Zeta potential [1, 25] of −3.116 mV, a PDI [2, 25] of 0.213 and a Size [2, 26] of 71.7 nm. For the same compound, the “Encapsulation Efficiency %” value [3, 25] was 98.4%.
